PubChem BioAssay (NCI)
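Method: 48-hour compound exposure of cells in 96-well plates, five concentrations, linear interpolation of endpoints. GI50 = concentration required for 50% inhibition of growth. TGI is the concentration that stops growth completely.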

Tests used:
Assay in all cases: NCI-60 cell line screen, 48 h
[1] = tested on: 786-0 renal
[2] = tested on: A498 renal
[3] = tested on: A549 NSCLC
[4] = tested on: ACHN renal
[5] = tested on: CAKI-1 renal
[6] = tested on: CCRF-CEM leukemia
[7] = tested on: COLO 205 colon
[8] = tested on: DU-145 prostate
[9] = tested on: HCC-2998 colon
[10] = tested on: HCT-116 colon
[11] = tested on: HCT-15 colon
[12] = tested on: HOP-62 NSCLC
[13] = tested on: HOP-92 NSCLC
[14] = tested on: HS 578T breast
[15] = tested on: IGROV1 ovarian
[16] = tested on: K-562 leukemia
[17] = tested on: KM12 colon
[18] = tested on: LOX IMVI melanoma
[19] = tested on: M14 melanoma
[20] = tested on: MALME-3M melanoma
[21] = tested on: MCF7 breast
[22] = tested on: MDA-MB-435
[23] = tested on: MOLT-4 leukemia
[24] = tested on: NCI-H226 lung
[25] = tested on: NCI-H23 lung
[26] = tested on: NCI-H460 lung
[27] = tested on: NCI-H522 lung
[28] = tested on: NCI/ADR-RES ovarian
[29] = tested on: OVCAR-3 ovarian
[30] = tested on: OVCAR-4 ovarian
[31] = tested on: OVCAR-5 ovarian
[32] = tested on: OVCAR-8 ovarian
[33] = tested on: PC-3 prostate
[34] = tested on: RPMI-8226 leukemia
[35] = tested on: RXF 393 renal
[36] = tested on: SF-268 CNS
[37] = tested on: SF-295 CNS
[38] = tested on: SK-MEL-2 melanoma
[39] = tested on: SK-MEL-28 melanoma
[40] = tested on: SK-MEL-5 melanoma
[41] = tested on: SK-OV-3 ovarian
[42] = tested on: SN12C renal
[43] = tested on: SNB-19 CNS
[44] = tested on: SR leukemia
[45] = tested on: T-47D breast
[46] = tested on: TK-10 renal
[47] = tested on: U251 CNS
[48] = tested on: UACC-62 melanoma
[49] = tested on: UO-31 renal

O=C(Nc1cc(Cl)cc(Cl)c1)c1cccc(NC2=C(Cl)C(=O)N(Cc3ccccc3)C2=O)c1
GI50 [1]: 26.8 µM
TGI [1]: > 100 µM
GI50 [2]: 22.2 µM
TGI [2]: 50.7 µM
GI50 [3]: 36.3 µM
TGI [3]: > 100 µM
GI50 [4]: 31.9 µM
TGI [4]: > 100 µM
GI50 [5]: 30.3 µM
TGI [5]: > 100 µM
GI50 [6]: 4.09 µM
TGI [6]: > 100 µM
GI50 [7]: 31.5 µM
TGI [7]: > 100 µM
GI50 [8]: 32.1 µM
TGI [8]: > 100 µM
GI50 [9]: 37.1 µM
TGI [9]: > 100 µM
GI50 [10]: 12 µM
TGI [10]: > 100 µM
GI50 [11]: 24 µM
TGI [11]: > 100 µM
GI50 [12]: 37.4 µM
TGI [12]: > 100 µM
GI50 [13]: 18.9 µM
TGI [13]: 85.7 µM
GI50 [14]: 32.7 µM
TGI [14]: > 100 µM
GI50 [15]: 41.1 µM
TGI [15]: > 100 µM
GI50 [16]: 7.89 µM
TGI [16]: > 100 µM
GI50 [17]: 31.5 µM
TGI [17]: > 100 µM
GI50 [18]: 12.1 µM
TGI [18]: > 100 µM
GI50 [19]: 35.8 µM
TGI [19]: > 100 µM
GI50 [20]: 30.7 µM
TGI [20]: 97.4 µM
GI50 [21]: 21.7 µM
TGI [21]: > 100 µM
GI50 [22]: 21.8 µM
TGI [22]: 88.1 µM
GI50 [23]: 4.15 µM
TGI [23]: > 100 µM
GI50 [24]: 51.4 µM
TGI [24]: > 100 µM
GI50 [25]: 27.8 µM
TGI [25]: > 100 µM
GI50 [26]: 33.2 µM
TGI [26]: > 100 µM
GI50 [27]: 28.5 µM
TGI [27]: > 100 µM
GI50 [28]: 30.3 µM
TGI [28]: > 100 µM
GI50 [29]: 21.8 µM
TGI [29]: > 100 µM
GI50 [30]: 81.3 µM
TGI [30]: > 100 µM
GI50 [31]: > 100 µM
TGI [31]: > 100 µM
GI50 [32]: 41.7 µM
TGI [32]: > 100 µM
GI50 [33]: 19.6 µM
TGI [33]: > 100 µM
GI50 [34]: 2310 nM
TGI [34]: > 100 µM
GI50 [35]: 18.9 µM
TGI [35]: > 100 µM
GI50 [36]: 42.7 µM
TGI [36]: > 100 µM
GI50 [37]: 34.2 µM
TGI [37]: > 100 µM
GI50 [38]: 65.2 µM
TGI [38]: > 100 µM
GI50 [39]: 54.7 µM
TGI [39]: > 100 µM
GI50 [40]: 16.6 µM
TGI [40]: 34.8 µM
GI50 [41]: 33.6 µM
TGI [41]: > 100 µM
GI50 [42]: 40 µM
TGI [42]: > 100 µM
GI50 [43]: 54 µM
TGI [43]: > 100 µM
GI50 [44]: 6.02 µM
TGI [44]: 80.8 µM
GI50 [45]: 66.5 µM
TGI [45]: > 100 µM
GI50 [46]: 31.8 µM
TGI [46]: > 100 µM
GI50 [47]: 15.6 µM
TGI [47]: > 100 µM
GI50 [48]: 29.2 µM
TGI [48]: > 100 µM
GI50 [49]: 16.9 µM
TGI [49]: > 100 µM
